Results as given in PubChem BioAssay AID463089 (NMMLSC, 2010).
Calls of active or inactive are those of the source.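 How the source made its calls: active means compound whose binding-signal loss grows with dose, reaching half its maximum below 10 micromolar; inactive means the rest.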

Assays:
[1] = biological target: Mitogen-activated protein kinase kinase kinase 2 (Homo sapiens) (UniProt Q9Y2U5); assay: modulators of MEKK2-MEK5 PB1 interaction, dose response, biochemical, TR-FRET, Eu and Cy5 interference panels (AID 463089); settings: TR-FRET MEKK2-MEK5 PB1 binding, TR-FRET binding assay; for response (panel-specific, % change): at 30 µM (top of the series)
Sequence of Mitogen-activated protein kinase kinase kinase 2 (Homo sapiens) (Q9Y2U5 whole entry, looked up): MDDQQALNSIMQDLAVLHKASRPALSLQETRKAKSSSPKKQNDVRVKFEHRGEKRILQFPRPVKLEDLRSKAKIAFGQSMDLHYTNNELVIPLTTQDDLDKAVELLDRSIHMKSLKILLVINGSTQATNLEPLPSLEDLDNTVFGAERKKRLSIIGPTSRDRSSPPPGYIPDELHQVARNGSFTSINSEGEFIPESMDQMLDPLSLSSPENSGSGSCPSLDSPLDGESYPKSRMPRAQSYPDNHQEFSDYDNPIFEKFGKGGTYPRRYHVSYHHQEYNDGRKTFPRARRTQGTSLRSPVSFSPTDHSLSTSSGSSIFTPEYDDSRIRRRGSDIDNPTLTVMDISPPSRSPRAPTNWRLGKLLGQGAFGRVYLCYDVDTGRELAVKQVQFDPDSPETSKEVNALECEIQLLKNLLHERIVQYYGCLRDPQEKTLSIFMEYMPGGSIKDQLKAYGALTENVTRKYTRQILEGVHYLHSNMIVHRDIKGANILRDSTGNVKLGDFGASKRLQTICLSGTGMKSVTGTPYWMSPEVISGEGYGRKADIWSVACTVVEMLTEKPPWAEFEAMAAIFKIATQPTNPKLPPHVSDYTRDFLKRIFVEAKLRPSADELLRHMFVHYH

[2] = as above; settings: TR-FRET MEKK2-MEK5 PB1 binding; for response (panel-specific, % change): at 30 µM (top of the series)
[3] = Cy5 fluorescence 665 nm counterscreen
[4] = Eu fluorescence 620 nm counterscreen

SMILES | response (panel-specific, % change) [1] | EC50 [2, 3] [nM] | EC50 [2, 4] [nM] | EC50 [1] [nM] | response (panel-specific, % change) [2, 3] | response (panel-specific, % change) [2, 4]
CCC(=C/c1sc2ccc3ccccc3c2[n+]1C)/C=C1\Sc2ccc3ccccc3c2N1C | inactive | 4100 | 1900 | – | – | –
CCNc1ccc2noc3c2c1C(=O)c1ccccc1-3 | – | – | 1600 | 3500 | inactive | –
CCN1/C(=C/C(C)=C/c2sc3ccccc3[n+]2CC)Sc2ccccc21 | inactive | – | 2000 | – | inactive | –
CN1CCN(c2ccc(NC(=O)c3ccc(-c4ccc(Cl)cc4)o3)cc2)CC1 | – | – | – | – | inactive | inactive
Nc1cc2nc[nH]c2cc1N | – | – | 1500 | 2000 | inactive | –
COc1cccc(OC)c1-c1nn2c(-c3cc(-c4ccccc4)n[nH]3)nnc2s1 | – | – | – | 2200 | inactive | inactive
